Measured values from patent US9204653B2, “5-fluoro pyrimidine derivatives” (DOW AGROSCIENCES LLC, priority 2008, dated 2015).
Where two headings read alike, the source gives them in different places.

Test system: Mycosphaerella graminicola; Anamorph: Septoria tritici; Bayer Code SEPTTR
Experiment: Leaf blotch of wheat, foliar fungicide treatment, one day protectant (1DP) or three day curative (3DC)
Type: in vivo, Septoria tritici on wheat plants (variety Yuma)
Conditions: Zymoseptoria tritici
[1] = 24 h, one day protectant (1DP), 25 ppm, rating of percent disease control, read-out: SETTTR 1DP 25 ppm
[2] = 24 h, one day protectant (1DP), rating of percent disease control, read-out: SEPTTR 1DP 100 ppm
[3] = 72 h, three day curative (3DC), 25 ppm, rating of percent disease control, read-out: SEPTTR 3DC 25 ppm
[4] = 72 h, three day curative (3DC), rating of percent disease control, read-out: SEPTTR 3DC 100 ppm
[5] = 24 h, one day protectant (1DP), 25 ppm (first 1DP column), percent control rating, read-out: SETTTR 1DP 25 ppm
[6] = 24 h, one day protectant (1DP), 25 ppm as printed (second 1DP column), percent control rating, read-out: SETTTR 1DP 25 ppm
[7] = 72 h, three day curative (3DC), 25 ppm, percent control rating, read-out: SEPTTR 3DC 25 ppm
[8] = 72 h, three day curative (3DC), percent control rating, read-out: SEPTTR 3DC 100 ppm
[9] = 24 h, one day protectant (1DP), 25 ppm, percent disease control rating, read-out: SETTTR 1DP 25 ppm
[10] = 24 h, one day protectant (1DP), percent disease control rating, read-out: SEPTTR 1DP 100 ppm
[11] = 72 h, three day curative (3DC), 25 ppm, percent disease control rating, read-out: SEPTTR 3DC 25 ppm
[12] = 72 h, three day curative (3DC), percent disease control rating, read-out: SEPTTR 3DC 100 ppm
[13] = 24 h, % disease control rating, one day protectant
[14] = 24 h, one day protectant, 25 ppm, rating of percent disease control, read-out: SETTTR 1DP 25 ppm
[15] = 24 h, one day protectant, rating of percent disease control, read-out: SEPTTR 1DP 100 ppm
[16] = 72 h, three day curative, 25 ppm, rating of percent disease control, read-out: SEPTTR 3DC 25 ppm
[17] = 72 h, three day curative, rating of percent disease control, read-out: SEPTTR 3DC 100 ppm

Nc1nc(OCc2ccc(C(F)(F)F)nc2)ncc1F [Compound 184]
pest or weed control at 25 ppm [1]: 76 to 100%
pest or weed control at 100 ppm [2]: 76 to 100%
pest or weed control at 25 ppm [3]: 51 to 75%
pest or weed control at 100 ppm [4]: 76 to 100%

CC#CCOc1ncc(F)c(N)n1 [Compound 489]
pest or weed control at 25 ppm [1]: 0 to 25%
pest or weed control at 100 ppm [2]: 51 to 75%
pest or weed control at 25 ppm [3]: 76 to 100%
pest or weed control at 100 ppm [4]: 76 to 100%

COc1cccc(COc2ncc(F)c(NS(=O)(=O)c3ccccc3)n2)c1 [Compound 1013]
pest or weed control at 25 ppm [5]: 0 to 25%
pest or weed control at 25 ppm [6]: 0 to 25%
pest or weed control at 25 ppm [7]: 0 to 25%
pest or weed control at 100 ppm [8]: 0 to 25%

COc1cc(COc2ncc(F)c(N)n2)c(OC)cc1C [Compound 450]
pest or weed control at 25 ppm [1]: 76 to 100%
pest or weed control at 100 ppm [2]: 76 to 100%
pest or weed control at 25 ppm [3]: 76 to 100%
pest or weed control at 100 ppm [4]: 51 to 75%

Nc1nc(OCc2ccc(OC(F)F)cc2)ncc1F [Compound 136]
pest or weed control at 25 ppm [9]: 76 to 100%
pest or weed control at 100 ppm [10]: 76 to 100%
pest or weed control at 25 ppm [11]: 76 to 100%
pest or weed control at 100 ppm [12]: 76 to 100%

Fc1cnc(OCc2ccc(Cl)cc2)nc1NCc1cccs1 [Compound 808]
pest or weed control at 50 ppm [13]: 76 to 100%
pest or weed control at 200 ppm (24 h, % disease control rating, one day protectant, 200 ppm): 76 to 100%

O=C(NCc1ccccc1)Nc1nc(OCc2ccc(F)cc2)ncc1F [Compound 59]
pest or weed control at 25 ppm [9]: 0 to 25%
pest or weed control at 100 ppm [10]: 0 to 25%
pest or weed control at 25 ppm [11]: 0 to 25%
pest or weed control at 100 ppm [12]: 26 to 50%

COc1ncc(F)c(NNc2ccccc2OC)n1 [Compound 1052]
pest or weed control at 25 ppm [5]: 0 to 25%
pest or weed control at 25 ppm [6]: 0 to 25%
pest or weed control at 25 ppm [7]: 0 to 25%
pest or weed control at 100 ppm [8]: 0 to 25%

Fc1ccc(COc2ncc(F)c(NNc3ccccc3F)n2)cc1 [Compound 1042]
pest or weed control at 25 ppm [5]: 0 to 25%
pest or weed control at 25 ppm [6]: 0 to 25%
pest or weed control at 25 ppm [7]: 0 to 25%
pest or weed control at 100 ppm [8]: 26 to 50%

C=CCOc1ncc(F)c(/N=N/c2ccc(Br)cc2)n1 [Compound 1100]
pest or weed control at 25 ppm [5]: 0 to 25%
pest or weed control at 25 ppm [6]: 0 to 25%
pest or weed control at 25 ppm [7]: 26 to 50%
pest or weed control at 100 ppm [8]: 26 to 50%

CN(C)/C=N/c1nc(OC(=O)Oc2ccccc2)ncc1F [Compound 669]
pest or weed control at 25 ppm [14]: 76 to 100%
pest or weed control at 100 ppm [15]: 76 to 100%
pest or weed control at 25 ppm [16]: 76 to 100%
pest or weed control at 100 ppm [17]: 76 to 100%

COCCOC(=O)Nc1nc(OCc2cccc(C#N)c2)ncc1F [Compound 668]
pest or weed control at 25 ppm [14]: 26 to 50%
pest or weed control at 100 ppm [15]: 76 to 100%
pest or weed control at 25 ppm [16]: 76 to 100%
pest or weed control at 100 ppm [17]: 76 to 100%

COc1cc(COc2ncc(F)c(N)n2)cc(OC)c1 [Compound 623]
pest or weed control at 25 ppm [14]: 76 to 100%
pest or weed control at 100 ppm [15]: 76 to 100%
pest or weed control at 25 ppm [16]: 51 to 75%
pest or weed control at 100 ppm [17]: 76 to 100%

Fc1cnc(OCc2ccccc2)nc1NNc1nccc(C(F)(F)F)n1 [Compound 1038]
pest or weed control at 25 ppm [5]: 0 to 25%
pest or weed control at 25 ppm [6]: 0 to 25%
pest or weed control at 25 ppm [7]: 0 to 25%
pest or weed control at 100 ppm [8]: 0 to 25%

O=C(Nc1ccccc1F)Nc1nc(OCc2cccc(F)c2)ncc1F [Compound 231]
pest or weed control at 25 ppm [1]: 0 to 25%
pest or weed control at 100 ppm [2]: 0 to 25%
pest or weed control at 25 ppm [3]: 0 to 25%
pest or weed control at 100 ppm [4]: 0 to 25%

Nc1nc(OCc2c(Cl)cccc2Cl)ncc1F [Compound 847]
pest or weed control at 50 ppm [13]: 76 to 100%

CCC(Nc1nc(OCc2ccc(F)cc2)ncc1F)Nc1nc(OCc2ccc(F)cc2)ncc1F [Compound 238]
pest or weed control at 25 ppm [1]: 0 to 25%
pest or weed control at 100 ppm [2]: 51 to 75%
pest or weed control at 25 ppm [3]: 0 to 25%
pest or weed control at 100 ppm [4]: 26 to 50%

O=[N+]([O-])c1ccccc1SNc1nc(OCc2c(F)cc(Br)cc2F)ncc1F [Compound 479]
pest or weed control at 25 ppm [1]: 76 to 100%
pest or weed control at 100 ppm [2]: 76 to 100%
pest or weed control at 25 ppm [3]: 51 to 75%
pest or weed control at 100 ppm [4]: 51 to 75%

Nc1nc(OCc2ccc(OCc3ccc(F)cc3)cc2)ncc1F [Compound 648]
pest or weed control at 25 ppm [14]: 76 to 100%
pest or weed control at 100 ppm [15]: 76 to 100%
pest or weed control at 25 ppm [16]: 76 to 100%
pest or weed control at 100 ppm [17]: 76 to 100%

O=[N+]([O-])c1ccccc1SNc1nc(OCc2ccc(F)cc2)ncc1F [Compound 39, N-[5-Fluoro-2-(4-fluorobenzyloxy)-pyrimidin-4-yl]-S-(2-nitrophenyl)-thiohydroxylamine]
pest or weed control at 25 ppm [9]: 76 to 100%
pest or weed control at 100 ppm [10]: 76 to 100%
pest or weed control at 25 ppm [11]: 0 to 25%
pest or weed control at 100 ppm [12]: 0 to 25%
